# Experimental data reported in patent publication US8758816B2, “Compositions comprising azelastine and methods of use thereof” (priority 2004, dated 2014).
# Where a name gives a salt, the structure may show the parent alone.
# Test system: patients with seasonal allergic rhinitis (SAR)
# Assay: MP 428 study: individual symptom severity scores (runny nose, itchy nose, sneezing, congestion; 0-3 scale)
# Assay type: in vivo, human
# Conditions: Intent-to-Treat Population
# Protocol: A two-week, randomized, double-blind study, which evaluated the effects of the co-administration of ASTELIN® (azelastine hydrochloride (HCl)) and FLONASE® (fluticasone propionate) compared to either product alone in patients with seasonal allergic rhinitis (SAR) was conducted during the 2006 Texas mountain cedar season. After a 5-day placebo lead-in period, 151 patients with moderate-to-severe allergic rhinitis symptoms were randomized to either: (1) (49 total patients) ASTELIN® (azelastine hydrochloride (HCl)) plus placebo saline nasal spray 2 sprays per nostril, 15 minutes apart, twice daily (AM & PM); (2) (50 total patients) FLONASE® (fluticasone propionate) plus placebo saline nasal spray, 2 sprays per nostril, 15 minutes apart, once daily (AM) and two sessions of placebo saline nasal spray, 2 sprays per nostril, 15 minutes apart (PM); or (3) (52 total patients) the co-administration of ASTELIN® (azelastine hydrochloride (HCl)) 2 sprays per nostril plus FLONASE® (fluticasone propionate) 2 sprays per nostril (AM), 15 minutes apart, and ASTELIN® (azelastine hydrochloride (HCl)) 2 sprays per nostril plus placebo saline nasal spray, 15 minutes apart, (PM) for a 2-week double-blind treatment period.
# The primary efficacy variable was the change from baseline in the Total Nasal Symptom Score (TNSS), which comprised sneezing, itchy nose, runny nose, and nasal congestion (individual symptoms scores were assigned a value between 0 and 3, where 0=no symptoms and 3=severe symptoms). This study was not statistically designed to assess the differences between ASTELIN® and FLONASE®.
# The results of the clinical trial are summarized and presented in Appendix A hereinbelow and in FIGS. 1-6. […] FIGS. 2-5 show the mean improvement in severity score (0-3 scale) from baseline for the symptoms of runny nose, itchy nose, sneezing and congestion, respectively.
compound,measurement,setting,value
"CN1CCCC(n2nc(Cc3ccc(Cl)cc3)c3ccccc3c2=O)CC1 (racemic) [Azelastine, (±)-1-(2H)-phthalazinone, 4-[(4-chlorophenyl)methyl]-2-(hexahydro-1-methyl-1H-azepin-4-yl)-, mono-hydrochloride]","Change from Baseline in AM and PM Combined Nasal Symptom Score: Congestion, LS Mean",Day 2,−0.73
same,"Change from Baseline in AM and PM Combined Nasal Symptom Score: Congestion, Mean",Day 2,−0.78
same,"Change from Baseline in AM and PM Combined Nasal Symptom Score: Congestion, Median",Day 2,−0.17
same,"Change from Baseline in AM and PM Combined Nasal Symptom Score: Itchy Nose, LS Mean",Day 2,−0.58
same,"Change from Baseline in AM and PM Combined Nasal Symptom Score: Itchy Nose, Mean",Day 2,−0.61
same,"Change from Baseline in AM and PM Combined Nasal Symptom Score: Itchy Nose, Median",Day 2,−0.50
same,"Change from Baseline in AM and PM Combined Nasal Symptom Score: Runny Nose, LS Mean",Day 2,−0.70
same,"Change from Baseline in AM and PM Combined Nasal Symptom Score: Runny Nose, Mean",Day 2,−0.72
same,"Change from Baseline in AM and PM Combined Nasal Symptom Score: Runny Nose, Median",Day 2,−0.42
same,"Change from Baseline in AM and PM Combined Nasal Symptom Score: Sneezing, LS Mean",Day 2,−1.09
same,"Change from Baseline in AM and PM Combined Nasal Symptom Score: Sneezing, Mean",Day 2,−1.11
same,"Change from Baseline in AM and PM Combined Nasal Symptom Score: Sneezing, Median",Day 2,−0.90
same,"Percent Change from Baseline in AM and PM Combined Nasal Symptom Score: Congestion, LS Mean",Day 2,−13.19%
same,"Percent Change from Baseline in AM and PM Combined Nasal Symptom Score: Congestion, Mean",Day 2,−14.05%
same,"Percent Change from Baseline in AM and PM Combined Nasal Symptom Score: Congestion, Median",Day 2,−3.23%
same,"Percent Change from Baseline in AM and PM Combined Nasal Symptom Score: Itchy Nose, LS Mean",Day 2,−13.14%
same,"Percent Change from Baseline in AM and PM Combined Nasal Symptom Score: Itchy Nose, Mean",Day 2,−13.55%
same,"Percent Change from Baseline in AM and PM Combined Nasal Symptom Score: Itchy Nose, Median",Day 2,−11.11%
same,"Percent Change from Baseline in AM and PM Combined Nasal Symptom Score: Runny Nose, LS Mean",Day 2,−13.68%
same,"Percent Change from Baseline in AM and PM Combined Nasal Symptom Score: Runny Nose, Mean",Day 2,−14.08%
same,"Percent Change from Baseline in AM and PM Combined Nasal Symptom Score: Runny Nose, Median",Day 2,−7.98%
same,"Percent Change from Baseline in AM and PM Combined Nasal Symptom Score: Sneezing, LS Mean",Day 2,−26.72%
same,"Percent Change from Baseline in AM and PM Combined Nasal Symptom Score: Sneezing, Mean",Day 2,−26.94%
same,"Percent Change from Baseline in AM and PM Combined Nasal Symptom Score: Sneezing, Median",Day 2,−21.05%
same,"Change from Baseline in AM and PM Combined Nasal Symptom Score: Congestion, LS Mean",Day 3,−0.62
same,"Change from Baseline in AM and PM Combined Nasal Symptom Score: Congestion, Mean",Day 3,−0.68
same,"Change from Baseline in AM and PM Combined Nasal Symptom Score: Congestion, Median",Day 3,0.00
same,"Change from Baseline in AM and PM Combined Nasal Symptom Score: Itchy Nose, LS Mean",Day 3,−0.85
same,"Change from Baseline in AM and PM Combined Nasal Symptom Score: Itchy Nose, Mean",Day 3,−0.84
same,"Change from Baseline in AM and PM Combined Nasal Symptom Score: Itchy Nose, Median",Day 3,−0.75
same,"Change from Baseline in AM and PM Combined Nasal Symptom Score: Runny Nose, LS Mean",Day 3,−0.74
same,"Change from Baseline in AM and PM Combined Nasal Symptom Score: Runny Nose, Mean",Day 3,−0.79
same,"Change from Baseline in AM and PM Combined Nasal Symptom Score: Runny Nose, Median",Day 3,−1.00
same,"Change from Baseline in AM and PM Combined Nasal Symptom Score: Sneezing, LS Mean",Day 3,−0.99
same,"Change from Baseline in AM and PM Combined Nasal Symptom Score: Sneezing, Mean",Day 3,−0.97
same,"Change from Baseline in AM and PM Combined Nasal Symptom Score: Sneezing, Median",Day 3,−0.77
same,"Percent Change from Baseline in AM and PM Combined Nasal Symptom Score: Congestion, LS Mean",Day 3,−10.71%
same,"Percent Change from Baseline in AM and PM Combined Nasal Symptom Score: Congestion, Mean",Day 3,−11.70%
same,"Percent Change from Baseline in AM and PM Combined Nasal Symptom Score: Congestion, Median",Day 3,0.00%
same,"Percent Change from Baseline in AM and PM Combined Nasal Symptom Score: Itchy Nose, LS Mean",Day 3,−19.04%
same,"Percent Change from Baseline in AM and PM Combined Nasal Symptom Score: Itchy Nose, Mean",Day 3,−18.60%
same,"Percent Change from Baseline in AM and PM Combined Nasal Symptom Score: Itchy Nose, Median",Day 3,−16.67%
same,"Percent Change from Baseline in AM and PM Combined Nasal Symptom Score: Runny Nose, LS Mean",Day 3,−13.72%
same,"Percent Change from Baseline in AM and PM Combined Nasal Symptom Score: Runny Nose, Mean",Day 3,−14.69%
same,"Percent Change from Baseline in AM and PM Combined Nasal Symptom Score: Runny Nose, Median",Day 3,−16.67%
same,"Percent Change from Baseline in AM and PM Combined Nasal Symptom Score: Sneezing, LS Mean",Day 3,−23.56%
same,"Percent Change from Baseline in AM and PM Combined Nasal Symptom Score: Sneezing, Mean",Day 3,−22.81%
same,"Percent Change from Baseline in AM and PM Combined Nasal Symptom Score: Sneezing, Median",Day 3,−16.08%
same,"Change from Baseline in AM and PM Combined Nasal Symptom Score: Congestion, LS Mean",Day 4,−0.78
same,"Change from Baseline in AM and PM Combined Nasal Symptom Score: Congestion, Mean",Day 4,−0.82
same,"Change from Baseline in AM and PM Combined Nasal Symptom Score: Congestion, Median",Day 4,−0.92
same,"Change from Baseline in AM and PM Combined Nasal Symptom Score: Itchy Nose, LS Mean",Day 4,−1.01
same,"Change from Baseline in AM and PM Combined Nasal Symptom Score: Itchy Nose, Mean",Day 4,−1.00
same,"Change from Baseline in AM and PM Combined Nasal Symptom Score: Itchy Nose, Median",Day 4,−0.73
same,"Change from Baseline in AM and PM Combined Nasal Symptom Score: Runny Nose, LS Mean",Day 4,−0.76
same,"Change from Baseline in AM and PM Combined Nasal Symptom Score: Runny Nose, Mean",Day 4,−0.79
same,"Change from Baseline in AM and PM Combined Nasal Symptom Score: Runny Nose, Median",Day 4,−0.43
same,"Change from Baseline in AM and PM Combined Nasal Symptom Score: Sneezing, LS Mean",Day 4,−1.34
same,"Change from Baseline in AM and PM Combined Nasal Symptom Score: Sneezing, Mean",Day 4,−1.32
same,"Change from Baseline in AM and PM Combined Nasal Symptom Score: Sneezing, Median",Day 4,−1.00
same,"Percent Change from Baseline in AM and PM Combined Nasal Symptom Score: Congestion, LS Mean",Day 4,−13.79%
same,"Percent Change from Baseline in AM and PM Combined Nasal Symptom Score: Congestion, Mean",Day 4,−14.44%
same,"Percent Change from Baseline in AM and PM Combined Nasal Symptom Score: Congestion, Median",Day 4,−16.67%
same,"Percent Change from Baseline in AM and PM Combined Nasal Symptom Score: Itchy Nose, LS Mean",Day 4,−22.54%
same,"Percent Change from Baseline in AM and PM Combined Nasal Symptom Score: Itchy Nose, Mean",Day 4,−22.23%
same,"Percent Change from Baseline in AM and PM Combined Nasal Symptom Score: Itchy Nose, Median",Day 4,−13.79%
same,"Percent Change from Baseline in AM and PM Combined Nasal Symptom Score: Runny Nose, LS Mean",Day 4,−15.76%
same,"Percent Change from Baseline in AM and PM Combined Nasal Symptom Score: Runny Nose, Mean",Day 4,−16.23%
same,"Percent Change from Baseline in AM and PM Combined Nasal Symptom Score: Runny Nose, Median",Day 4,−7.98%
same,"Percent Change from Baseline in AM and PM Combined Nasal Symptom Score: Sneezing, LS Mean",Day 4,−32.76%
same,"Percent Change from Baseline in AM and PM Combined Nasal Symptom Score: Sneezing, Mean",Day 4,−31.90%
same,"Percent Change from Baseline in AM and PM Combined Nasal Symptom Score: Sneezing, Median",Day 4,−25.00%
same,"Change from Baseline in AM and PM Combined Nasal Symptom Score: Congestion, LS Mean",Day 5,−1.02
same,"Change from Baseline in AM and PM Combined Nasal Symptom Score: Congestion, Mean",Day 5,−1.07
same,"Change from Baseline in AM and PM Combined Nasal Symptom Score: Congestion, Median",Day 5,−0.90
same,"Change from Baseline in AM and PM Combined Nasal Symptom Score: Itchy Nose, LS Mean",Day 5,−1.11
same,"Change from Baseline in AM and PM Combined Nasal Symptom Score: Itchy Nose, Mean",Day 5,−1.10
same,"Change from Baseline in AM and PM Combined Nasal Symptom Score: Itchy Nose, Median",Day 5,−0.75
same,"Change from Baseline in AM and PM Combined Nasal Symptom Score: Runny Nose, LS Mean",Day 5,−0.96
same,"Change from Baseline in AM and PM Combined Nasal Symptom Score: Runny Nose, Mean",Day 5,−0.97
same,"Change from Baseline in AM and PM Combined Nasal Symptom Score: Runny Nose, Median",Day 5,−0.67
same,"Change from Baseline in AM and PM Combined Nasal Symptom Score: Sneezing, LS Mean",Day 5,−1.36
same,"Change from Baseline in AM and PM Combined Nasal Symptom Score: Sneezing, Mean",Day 5,−1.34
same,"Change from Baseline in AM and PM Combined Nasal Symptom Score: Sneezing, Median",Day 5,−1.03
